Reference: patent US5602156A, “Method for inhibiting metalloproteinase expression” (The United States of America as represented by the …, priority 1994, dated 1997)
“Also recorded” adds a separate entry of the source.

How the values were obtained:
MMP-1 = experiment: Northern blot of MMP-1 mRNA from A2058 cells; assay type: cell-based, human; conditions: 2 μM
Protocol: (§1) This example illustrates the effect of compound 1 on MMP-1 and MMP-2 mRNA from A2058 cells using Northern blot analysis.
Total cytoplasmic RNA was purified from A2058 cells using cesium chloride density centrifugation. Cells were treated with DMSO vehicle (0.05 %) or compound 1 (2 μM) for 24 or 48 hr. Total RNA yields from treated and control cells (μg/10^6 cells) were similar. Aliquots (5 μg) of total RNA were denatured and separated on formaldehyde-1% agarose slab gels, passively transferred to GeneScreen, and crosslinked using ultraviolet light exposure. RNA was hybridized in buffer (50% deionized formamide, 5x SSC, 10 mM Tris HCl pH 7.5, 1x Denharts solution without albumin, 1.0% SDS, and 0.125 mg/mL salmon sperm DNA) containing 10^6 counts/mL of ^32 P- labeled probe of either MMP-2, MMP-1, or with GAPDH which was used as a measure of RNA load. Probes were labeled to high specific activity with ^32 P-dCTP using a random primer labeling protocol. The cDNA probes for the MMP-2, MMP-1, and GAPDH have been described. See, Brown, et al., Cancer Res. 50:6184-6191 (1990); Templeton, et at., Cancer Res. 50:5431-5437 (1990); and Fort, et al., Nucleic Acids Res. 13:1431-1441 (1985). Radiolabeled bands were quantitated using laser densitometric analysis of autoradiography bands. […]

MMP-2 [1] = experiment: Western immunoblot of MMP-2 species in conditioned media; assay type: cell-based, human
Protocol: Conditioned media for zymogram and Western blot analysis were produced under serum-free conditions. Cells (2 million) were plated in 25 cm^2 flasks in serum-containing medium and cultured overnight. Serum-containingmedium was removed and the cell monolayers were washed twice with DMEM/ITS (DMEM containing insulin (5 μg/mL), transferrin (5 μg/mL), and selenium (5 ng/mL)). The resultant cells were fed with 3 mL of DMEM/ITS and additives as described in the Examples for two 24 hour periods. Conditioned media samples were collected at 24 hours and cells were refed with fresh DMEM/ITS containing the described additives for an additional 24 hours. Conditioned media samples were centrifuged to remove cells and debris then frozen at -20° C. until use. Freeze and thaw cycles of the conditioned media were limited to no more than two.
This example illustrates the dose-dependent effects of compound 1 on the presence of MMP-2 and its activated species. Western immunoblots were used to detect the effect of compound 1 on the presence of MMP-2 and its activated species and for crude quantitation of MMP-2 presence.
(§2) A2058 and HT1080 conditioned media samples were concentrated 10-fold using ultrafiltration units excluding material of less than 10 or 30 kDa in molecular weight. Aliquots of 15 μL were electrophoresed on 4-20% gradient PAGE gels, electrically transferred to membranes and immunoblotted with specific polyclonal antibody to proMMP-2. This antibody, made to the MMP-2/TIMP-2 complex recognizes the latent and activated MMP-2 species and crossreacts with TIMP-2 (21 kDa).

[2] = system: gelatinase activity of the metalloproteinases; experiment: Zymogram slices incubated with compound 1 or calcium chelators in the activating buffer (direct inhibition of enzyme); assay type: biochemical, human
Protocol: See, Felder, et al., J. Pharm. Exp. Therapeut. 257:967-971 (1991) and unpublished observations by the inventors.
Gelatin zymography was carded out using control conditioned media from A2058 cells and HT1080 cells in the absence of compound 1. Zymogram slices were incubated in low salt collagenase buffer with control (DMSO 0.1%), an inhibitory dose of compound 1 (20 μM), or the calcium chelators EGTA (10 mM) and EDTA (10 mM). […] See, Brown, et al., Cancer Res. 50:6184-6191 (1990). […] Lane 1 for each of the zymograms corresponds to A2058 while lane 2 corresponds to HT1080.

MMP-2 [3] = experiment: Western immunoblot of conditioned media from compound 1 and TGF-β1 treated cells; assay type: cell-based, human; conditions: HT1080 and A2058; 2 μM, 24 and 48 hr
Protocol: as §2
A2058 and HT1080 cells were incubated with compound 1 (2 μM), with or without TGF-β1 (5 ng/mL) for 24 and 48 hours prior to harvest of conditioned media. Aliquots were subjected to gelatin zymography as described in Example 1. Known concentrated conditioned medium from HT1080 cells was used for identification of the gelatinase species (92 kDa, gelatinase B/MMP-9; 72 kDa, gelatinase A/MMP-2 latent form; 65 kDa intermediate and 62 kDa activated forms of MMP-2).
Lane 1 is the control resulting from treatment of the cells with 0.1% DMSO. Lanes 2 and 3 correspond to those cells which are treated with 2 μM compound 1 in the absence of TGF-β1 for 24 and 48 hours, respectively. Lane 4 corresponds to cells which have been treated with TGF-β1 in the absence of compound 1. Lane 5 corresponds to cells which have been treated with TGF-β1 for 48 hours with compound 1 being added to the incubation mixture for the final 24 hours. […]

phospholipase C-γ = conditions: cited from earlier work
MMP-2 [4] = experiment: Northern blot of MMP-2 mRNA from A2058 cells; assay type: cell-based, human; conditions: 2 μM; for inhibition in MMP-2 transcription: corrected for loading (GAPDH)
Protocol: as §1
Total cytoplasmic RNA was purified from A2058 cells using cesium chloride density centrifugation. Cells were treated with DMSO vehicle (0.05 %) or compound 1 (2 μM) for 24 or 48 hr. Total RNA yields from treated and control cells (μg/10^6 cells) were similar. Aliquots (5 μg) of total RNA were denatured and separated on formaldehyde-1% agarose slab gels, passively transferred to GeneScreen, and crosslinked using ultraviolet light exposure. RNA was hybridized in buffer (50% deionized formamide, 5x SSC, 10 mM Tris HCl pH 7.5, 1x Denharts solution without albumin, 1.0% SDS, and 0.125 mg/mL salmon sperm DNA) containing 10^6 counts/mL of ^32 P- labeled probe of either MMP-2, MMP-1, or with GAPDH which was used as a measure of RNA load. Probes were labeled to high specific activity with ^32 P-dCTP using a random primer labeling protocol. The cDNA probes for the MMP-2, MMP-1, and GAPDH have been described. See, Brown, et al., Cancer Res. 50:6184-6191 (1990); Templeton, et at., Cancer Res. 50:5431-5437 (1990); and Fort, et al., Nucleic Acids Res. 13:1431-1441 (1985). Radiolabeled bands were quantitated using laser densitometric analysis of autoradiography bands. Numeric data are presented as percent inhibition of IVase or interstitial collagenase expression corrected for loading using GAPDH.

[5] = system: receptor-operated and voltage-gated calcium influx; conditions: cited from earlier work
arachidonic acid release = conditions: cited from earlier work

Structure (SMILES): NC(=O)c1nnn(Cc2cc(Cl)c(C(=O)c3ccc(Cl)cc3)c(Cl)c2)c1N [Compound 1, 5-amino-l-(4-(4-chlorobenzoyl)-3,5-dichlorobenzyl)-1,2,3-triazole-4-carboxamide]
- expression of interstitial collagenase MMP-1 (MMP-1): inhibits the expression of interstitial collagenase MMP-1
- presence of the MMP-2 species (MMP-2 [1]; A2058 and HT1080, FIG. 4): dose-dependent reduction of the presence of the MMP-2 species
- presence of the MMP-2 species (MMP-2 [1]; A2058 and HT1080, FIG. 4, listed as compound 1): dose-dependent
- presence of the MMP-2 species (MMP-2 [1]; after incubation with 20 μM compound 1): more complete reduction of all species
- shift of MMP-2 species (MMP-2 [1]; before more complete reduction of all species): shift to the lower molecular weight activated species
- mechanism not due to calcium chelation [2]: not due to calcium chelation
- gelatinase activity of enzymes in isolation ([2]; compound 1 in zymogram incubation buffer, 20 μM, A2058 and HT1080 media): lack of reduction of gelatinolytic activity in conditioned medium; also recorded: does not inhibit gelatinase activity of the metalloproteinases; also recorded: did not effect its activity in isolation
- inhibition of MMP-2 (immunoblot) (MMP-2 [3]): inhibits MMP-2 in a time-dependent manner
- tyrosine phosphorylation with activation of phospholipase C-γ (phospholipase C-γ): inhibits
- expression of type IV collagenase/gelatinase A MMP-2 (MMP-2 [4]): inhibits the expression
- inhibition in MMP-2 transcription (MMP-2 [4]; 24 hr): greater than 50%
- inhibition in MMP-2 transcription (MMP-2 [4]; 48 hr): greater than 50%
- calcium influx inhibition [5]: inhibits receptor-operated and voltage-gated calcium influx; also recorded: inhibit receptor-stimulated and voltage-gatedcalcium entry across cell membranes
- arachidonic acid release (arachidonic acid release): inhibits
